Laboratory results from ChEMBL document CHEMBL5050861 (2021).
Converted amounts (≈) assume the structure as drawn.

Key:
Homo sapiens = species: Homo sapiens; assay: Inhibition of human GALK1 K252A/E253A double mutant relative to control; set-up: concentration or dose not given beside the values; details: concentration not given here
[1] = Inhibition of recombinant mouse GALK1 using ATP as substrate incubated for 1 hr and measured by Kinase-Glo assay
[2] = Inhibition of human GALK1 K252A/E253A double mutant
[3] = Permeability of compound by PAMPA assay; format: ADME; details: for Papp: read-out: permeability
[4] = Stability of compound in rat microsomes assessed as half-life; format: ADME, Microsome
[5] = Kinetic aqueous solubility of the compound; format: physicochemical; details: buffer; read-out: Kinetic_solubility

| inhibition (Homo sapiens) | IC50 ([1]; read-out: IC50) | IC50 ([2]; read-out: IC50) | Papp [3] | half-life [4] | solubility kinetic [5] | IC50 [2] | permeability [3] | IC50 [1] | Structure (SMILES) |
| --- | --- | --- | --- | --- | --- | --- | --- | --- | --- |
| 97% | 27.3 µM | 2400 nM | < 10 ×10⁻⁶ cm/s | > 30 min | 70.1 µg/mL (≈ 119 µM) |  |  |  | CC1=C(C(=O)Nc2cc(C(=O)O)ccn2)C(c2cccc(C(F)(F)F)c2Cl)N=C(Nc2nc3ccc(F)cc3o2)N1 (configuration not stated) |
| 48% | 13.7 µM |  | < 10 ×10⁻⁶ cm/s | 4.52 min | < 1 µg/mL | Not Active |  |  | CC1=C(C(=O)NCc2nc3ccccc3n2C)C(c2ccccc2Cl)N=C(Nc2nc3ccccc3o2)N1 (configuration not stated) |
| 94% | 21.7 µM | 3100 nM | > 100 ×10⁻⁶ cm/s | > 30 min | < 10000 µg/mL |  |  |  | CC1=C(C(=O)Nc2cc(C(=O)O)ccn2)C(c2ccccc2Cl)N=C(Nc2nc3c(F)cccc3o2)N1 (configuration not stated) |
| 100% | 15.3 µM | 1800 nM | < 10 ×10⁻⁶ cm/s | < 10 min | < 10000 µg/mL |  |  |  | CC1=C(C(=O)Nc2cc(C(=O)O)ccn2)C(c2cccc(F)c2Cl)N=C(Nc2nc3ccc(F)cc3o2)N1 (configuration not stated) |
| 98% | 6.85 µM | 1400 nM |  | 8.87 min | 42 µg/mL (≈ 88.2 µM) |  |  |  | CC1=C(C(=O)NCc2cncn2C)C(c2ccccc2Cl)N=C(Nc2nc3ccccc3o2)N1 (configuration not stated) |
| 90% | 21.7 µM | 3800 nM | < 1 ×10⁻⁶ cm/s | > 30 min | > 78 µg/mL |  |  |  | CC1=C(C(=O)Nc2cc(C(=O)O)ccn2)C(c2cccc(C(N)=O)c2)N=C(Nc2nc3ccc(F)cc3o2)N1 (configuration not stated) |
| 100% | 3.85 µM | 235 nM | < 10 ×10⁻⁶ cm/s | > 30 min | 36 µg/mL (≈ 63.7 µM) |  |  |  | CC1=C(C(=O)Nc2cc(C(=O)O)ccn2)C(c2ccccc2Br)N=C(Nc2nc3ccc(F)cc3o2)N1 (configuration not stated) |
| 100% | 21.7 µM | 3600 nM | < 10 ×10⁻⁶ cm/s | > 30 min | 55.5 µg/mL (≈ 99.9 µM) |  |  |  | CC1=C(C(=O)Nc2cc(C(=O)O)ccn2)C(c2cccc(Cl)c2Cl)N=C(Nc2nc3ccc(F)cc3o2)N1 (configuration not stated) |
| 100% | 3.06 µM | 611 nM | < 1 ×10⁻⁶ cm/s | > 30 min | < 1 µg/mL |  |  |  | CC1=C(C(=O)Nc2cc(C(=O)O)ccn2)C(c2ccccc2Cl)N=C(Nc2nc3cc(C)ccc3o2)N1 (configuration not stated) |
| 100% | 17.2 µM | 6900 nM | < 1 ×10⁻⁶ cm/s | > 30 min | 34.4 µg/mL (≈ 66.6 µM) |  |  |  | CC1=C(C(=O)Nc2cc(C(=O)O)ccn2)C(c2ccccc2Cl)N=C(Nc2nc3ccc(C)cc3o2)N1 (configuration not stated) |
| 85% | 3.85 µM | 345 nM | < 1 ×10⁻⁶ cm/s | > 30 min | < 1 µg/mL |  |  |  | CC1=C(C(=O)Nc2cc(C(=O)O)ccn2)C(c2ccc(Cl)cc2Cl)N=C(Nc2nc3ccc(F)cc3o2)N1 (configuration not stated) |
| 85% | 13.7 µM | 5800 nM | < 1.3 ×10⁻⁶ cm/s | > 30 min | < 1 µg/mL |  |  |  | CC1=C(C(=O)Nc2cc(C(=O)O)ccn2)C(c2ccccc2Cl)N=C(Nc2nc3c(Cl)cccc3o2)N1 (configuration not stated) |
| 100% | 9.68 µM | 1000 nM | < 1 ×10⁻⁶ cm/s | > 30 min | 57.5 µg/mL (≈ 107 µM) |  |  |  | CC1=C(C(=O)Nc2cc(C(=O)O)ccn2)C(c2ccccc2Cl)N=C(Nc2nc3cccc(Cl)c3o2)N1 (configuration not stated) |
| 100% | 6.11 µM | 2250 nM | < 10 ×10⁻⁶ cm/s | > 30 min | 6.3 µg/mL (≈ 11.7 µM) |  |  |  | CC1=C(C(=O)Nc2cc(C(=O)O)ccn2)C(c2ccccc2Cl)N=C(Nc2nc3ccc(Cl)cc3o2)N1 (configuration not stated) |
| 100% | 21.7 µM | 5500 nM | 10 ×10⁻⁶ cm/s | > 30 min | > 76 µg/mL |  |  |  | CC1=C(C(=O)Nc2cc(C(=O)O)ccn2)C(c2ccccc2Cl)N=C(Nc2nc3cc(N)ccc3o2)N1 (configuration not stated) |
| 96% | 6.11 µM | 3100 nM | < 1 ×10⁻⁶ cm/s | > 30 min | 59.1 µg/mL (≈ 118 µM) |  |  |  | CC1=C(C(=O)Nc2cccc(C(=O)O)c2)C(c2ccccc2Cl)N=C(Nc2nc3ccccc3o2)N1 (configuration not stated) |
|  | 2.17 µM | 47 nM |  | 14.1 min | 4.47 µg/mL (≈ 8.85 µM) |  | 25.28 10^-6 cm/s |  | CC1=C(C(=O)NCc2cnn(C)c2)C(c2ccc(C)cc2Cl)N=C(Nc2nc3cccc(N)c3o2)N1 (configuration not stated) |
| 80% |  | > 15000 nM | < 1 ×10⁻⁶ cm/s | > 30 min | 65.7 µg/mL (≈ 123 µM) |  |  | Not Active | COc1cccc2nc(NC3=NC(c4ccccc4Cl)C(C(=O)Nc4cc(C(=O)O)ccn4)=C(C)N3)oc12 (configuration not stated) |
| 75% | 38.5 µM | > 15000 nM | < 10 ×10⁻⁶ cm/s | > 30 min | > 84 µg/mL |  |  |  | CC1=C(C(=O)Nc2cc(C(=O)O)ccn2)C(c2cccc(S(N)(=O)=O)c2)N=C(Nc2nc3ccc(F)cc3o2)N1 (configuration not stated) |
| 100% | 17.2 µM | 3600 nM | < 10 ×10⁻⁶ cm/s | < 10 min | < 10000 µg/mL |  |  |  | CC1=C(C(=O)Nc2cc(C(=O)O)ccn2)C(c2ccccc2Cl)N=C(Nc2nc3cc(F)ccc3o2)N1 (configuration not stated) |

| inhibition (Homo sapiens) | IC50 ([1]; read-out: IC50) | IC50 ([2]; read-out: IC50) | Papp [3] | half-life [4] | solubility kinetic [5] | IC50 [2] | permeability [3] | IC50 [1] | Structure (SMILES) |
| --- | --- | --- | --- | --- | --- | --- | --- | --- | --- |
| 100% | 6.85 µM | 365 nM | < 10 ×10⁻⁶ cm/s | > 30 min | > 76 µg/mL |  |  |  | CC1=C(C(=O)Nc2cc(C(=O)O)ccn2)C(c2ccccc2Cl)N=C(Nc2nc3cccc(C)c3o2)N1 (configuration not stated) |
| 94% | 13.7 µM | 11000 nM | > 1110 ×10⁻⁶ cm/s | 6.42 min | 23 µg/mL (≈ 48.3 µM) |  |  |  | CC1=C(C(=O)NCc2nccn2C)C(c2ccccc2Cl)N=C(Nc2nc3ccccc3o2)N1 (configuration not stated) |
| 100% | 17.2 µM | 5500 nM | < 1.3 ×10⁻⁶ cm/s | > 30 min | 3.5 µg/mL (≈ 6.77 µM) |  |  |  | CC1=C(C(=O)Nc2cc(C(=O)O)ccn2)C(c2ccccc2Cl)N=C(Nc2nc3c(C)cccc3o2)N1 (configuration not stated) |
| 100% | 8.63 µM | 1000 nM | < 1 ×10⁻⁶ cm/s | > 30 min | > 77 µg/mL |  |  |  | CC1=C(C(=O)Nc2cc(C(=O)O)ccn2)C(c2ccccc2Cl)N=C(Nc2nc3cccc(F)c3o2)N1 (configuration not stated) |
| 100% | 19.3 µM | 5400 nM | < 1 ×10⁻⁶ cm/s | > 30 min | > 81 µg/mL |  |  |  | COc1cccc(C2N=C(Nc3nc4ccc(F)cc4o3)NC(C)=C2C(=O)Nc2cc(C(=O)O)ccn2)c1Cl (configuration not stated) |
| 100% | 6.11 µM | 1400 nM |  | > 30 min | < 1 µg/mL |  |  |  | CC1=C(C(=O)Nc2ccc(C(=O)O)cc2)C(c2ccccc2Cl)N=C(Nc2nc3ccccc3o2)N1 (configuration not stated) |
| 88% | 6.85 µM | 970 nM |  | > 30 min | > 74 µg/mL |  |  |  | CC1=C(C(=O)Nc2cc(C(=O)O)ccn2)C(c2ccccc2Cl)N=C(Nc2nc3ccccc3o2)N1 (racemic) |
| 99% |  | 1700 nM | < 1 ×10⁻⁶ cm/s | > 30 min | > 75 µg/mL |  |  |  | CC1=C(C(=O)Nc2ncc(C(=O)O)s2)C(c2ccccc2Cl)N=C(Nc2nc3ccccc3o2)N1 (configuration not stated) |
| 90% | 7.69 µM | 770 nM |  | 14.6 min | 26.6 µg/mL (≈ 55.9 µM) |  |  |  | CC1=C(C(=O)NCc2cn(C)cn2)C(c2ccccc2Cl)N=C(Nc2nc3ccccc3o2)N1 (racemic) |
| 95% | 10.7 µM | 3900 nM |  | > 30 min | < 1 µg/mL |  |  |  | CC1=C(C(=O)Nc2nnc(C)s2)C(c2ccccc2Cl)N=C(Nc2nc3ccccc3o2)N1 (configuration not stated) |
| 84% | 12.2 µM | 1200 nM |  | 6.43 min | < 1 µg/mL |  |  |  | CC1=C(C(=O)NCc2cncs2)C(c2ccccc2Cl)N=C(Nc2nc3ccccc3o2)N1 (configuration not stated) |
|  | 19.3 µM |  | < 1 ×10⁻⁶ cm/s | > 30 min | > 51 µg/mL |  |  |  | CC1=C(C(=O)Nc2cc(C(=O)O)ccn2)C(c2ccc(C)cc2Cl)N=C(Nc2nc3ncccc3o2)N1 (configuration not stated) |
|  | 10.9 µM |  | < 3.2 ×10⁻⁶ cm/s | 14.1 min | < 1 µg/mL |  |  |  | CC1=C(C(=O)Nc2cc(B(O)O)ccn2)C(c2ccc(C)cc2Cl)N=C(Nc2nc3ccc(F)cc3o2)N1 (configuration not stated) |
| 96% | 7.69 µM | 3400 nM |  | > 30 min | < 1 µg/mL |  |  |  | CC1=C(C(=O)Nc2nncs2)C(c2ccccc2Cl)N=C(Nc2nc3ccccc3o2)N1 (configuration not stated) |
|  | 3.43 µM |  | < 7.3 ×10⁻⁶ cm/s | > 30 min | < 1 µg/mL |  |  |  | CC1=C(C(=O)Nc2ccc([N+](=O)[O-])cc2)C(c2ccccc2Cl)N=C(Nc2nc3ccccc3o2)N1 (configuration not stated) |
|  | 9.68 µM |  | < 1 ×10⁻⁶ cm/s | > 30 min | < 1 µg/mL |  |  |  | CC1=C(C(=O)Nc2cc(-c3nn[nH]n3)ccn2)C(c2ccc(C)cc2Cl)N=C(Nc2nc3ccc(F)cc3o2)N1 (configuration not stated) |
|  | 6.85 µM |  | < 1 ×10⁻⁶ cm/s | > 30 min | 52.6 µg/mL (≈ 120 µM) |  |  |  | O=C1CC(C(=O)O)CC2=C1C(c1ccccc1Cl)N=C(Nc1nc3ccccc3o1)N2 (configuration not stated) |
|  | 6.85 µM |  | < 6.3 ×10⁻⁶ cm/s | > 30 min | < 1 µg/mL |  |  |  | CC1=C(C(=O)Nc2ccc(C(N)=O)cc2)C(c2ccccc2Cl)N=C(Nc2nc3ccccc3o2)N1 (configuration not stated) |
| 100% | 3.06 µM | 136 nM |  | > 30 min | 2.8 µg/mL (≈ 5.23 µM) |  |  |  | CC1=C(C(=O)Nc2cc(C(=O)O)ccn2)C(c2ccc(C)cc2Cl)N=C(Nc2nc3ccc(F)cc3o2)N1 (racemic) |
|  | 5.44 µM |  | < 2 ×10⁻⁶ cm/s | > 30 min | 29 µg/mL (≈ 60.4 µM) |  |  |  | O=C1CC(C(=O)NCCO)CC2=C1C(c1ccccc1Cl)N=C(Nc1nc3ccccc3o1)N2 (configuration not stated) |

| Structure (SMILES) | inhibition (Homo sapiens) | IC50 ([1]; read-out: IC50) | IC50 ([2]; read-out: IC50) | Papp [3] | half-life [4] | solubility kinetic [5] | IC50 [2] | permeability [3] | IC50 [1] |
| --- | --- | --- | --- | --- | --- | --- | --- | --- | --- |
| CC1=C(C(=O)Nc2cc(C(=O)O)ccn2)C(c2ccccc2Cl)N=C(Nc2nc3cc(Cl)ccc3o2)N1 (configuration not stated) | 100% | 6.11 µM | 1700 nM | < 1 ×10⁻⁶ cm/s | > 30 min | 35.2 µg/mL (≈ 65.5 µM) |  |  |  |
